Target: cruzain (Trypanosoma cruzi, UniProt P25779)
Experiment: Cruzain counter-screening enzyme assay (Z-Phe-Arg-AMC)
Assay type: biochemical
Conditions: compound 25 µM; 10 min preincubation; pH 5.5
Description: Cruzain activity was measured by monitoring the fluorescence signal obtained by cleavage of the fluorogenic substrate Z-Phe-Arg-AMC, following a well-established protocol. The fluorescence intensity (excitation λ: 340 nm; emission λ: 440 nm) was monitored for at least 5 min. All assays were performed in sodium acetate 0.1 M at pH 5.5 and β-mercaptoethanol 10 mM. The final protein concentration was 0.1 nM, and the substrate concentration was 2.5 µM. Each condition was tested in triplicate and two independent assays (n = 6 data points), with preincubation of the enzyme for 10 min at 25 °C. Assays were performed at compound concentrations near the IC50 value against ZIKV NS2B-NS3pro.

Sequence of cruzain (P25779 123-467): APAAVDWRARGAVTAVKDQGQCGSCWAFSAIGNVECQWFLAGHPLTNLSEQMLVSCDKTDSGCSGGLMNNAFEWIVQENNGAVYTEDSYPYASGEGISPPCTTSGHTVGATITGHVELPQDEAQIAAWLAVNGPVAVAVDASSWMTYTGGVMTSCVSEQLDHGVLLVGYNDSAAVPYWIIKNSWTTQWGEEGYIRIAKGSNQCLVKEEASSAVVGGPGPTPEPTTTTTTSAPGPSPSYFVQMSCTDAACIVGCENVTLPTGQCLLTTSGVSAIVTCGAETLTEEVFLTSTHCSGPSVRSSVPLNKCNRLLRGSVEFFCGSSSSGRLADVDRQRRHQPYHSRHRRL

Compound	inhibition at 25 µM [%]	% Cruzain Inhibition
O=C(Nc1nc2cccnc2[nH]1)c1ccccc1NS(=O)(=O)c1ccc(Cl)cc1 [Compound 1]	97 ± 7	–
O=C(Nc1nc2cccnc2[nH]1)c1ccccc1NS(=O)(=O)c1ccc(F)cc1 [Compound 2]	42 ± 11	–
O=C(Nc1nc2cnccc2[nH]1)c1ccccc1NS(=O)(=O)c1ccc(Cl)cc1 [Compound 4]	-12 ± 9.1	no inhibitory activity

System: not listed separately
Experiment: Cytotoxicity MTT assay (CC50)
Conditions: African green monkey, Vero (ATCC CCL-81) cells
Description: (§1) The Vero (ATCC® CCL-81™) cell line was used for the cytotoxicity assays and antiviral activity evaluation against ZIKV. Cells were cultured in Eagle’s minimum essential media (MEM) (Cultilab, Campinas, Brazil). The media was supplemented with 5% fetal bovine serum (FBS) (Cultilab, Brazil), in addition to 100 IU/mL penicillin (Cellofarm, Rio De Janeiro, Brazil), 100 μg/mL streptomycin (Merck, Darmstadt, Germany), and 0.25 μg/mL amphotericin B (Cultilab, Brazil).
(§2) Cells were seeded in 96-well microplates (4.0 × 10^4 cells per well) and incubated at 37 °C and 5% CO2 for 24 h. Then, 200 µL of MEM with 1% FBS containing a serial dilution of the compounds (100 to 12.5 µM) was added. As vehicle control, a serial dilution of DMSO was used. After 72 h of incubation under the same conditions, 100 μL of 3-(4,5-dimethylthiazol-2-yl)-2,5-diphenyltetrazolium bromide (MTT; ThermoFischer Scientific, Waltham, MA, USA) [76] diluted in MEM (0.5 mg/mL) was added to each well and incubated for 3 h. The media was removed, and 100 μL of DMSO was added to each well to solubilize formazan crystals and shaken for 20 min. The absorbance was read at 570 nm using a spectrophotometer (VersaMax, Molecular Devices, San Jose, CA, USA). The percentages of inhibition of cell viability were calculated as the ratio between the absorbance of the compound-treated cells and cells with only the vehicle. […] Linear regression (LR) was used for the analysis, considering results with r^2 > 0.9. All conditions were tested in triplicate and one independent assay (n = 3 data points).

Compound	CC50 at 72 h [µM]
O=C(Nc1nc2cccnc2[nH]1)c1ccccc1NS(=O)(=O)c1ccc(Cl)cc1 [Compound 1]	22 ± 0.79
O=C(Nc1nc2cccnc2[nH]1)c1ccccc1NS(=O)(=O)c1ccc(F)cc1 [Compound 2]	32.5 ± 1.95
O=C(Nc1nc2cnccc2[nH]1)c1ccccc1NS(=O)(=O)c1ccc(Cl)cc1 [Compound 4]	57.1 ± 1.86

System: Vero (ATCC CCL-81) cell line
Experiment: Cytotoxicity MTT assay (CC50)
Conditions: Vero cells; compound 12.5 µM
Description: as §1, §2

Compound	Cell viability as percentage of cell control (mean absorbance / CELL)
O=C(Nc1nc2cccnc2[nH]1)c1ccccc1NS(=O)(=O)c1ccc(Cl)cc1 [Compound 1]	61.7079
O=C(Nc1nc2cccnc2[nH]1)c1ccccc1NS(=O)(=O)c1ccc(F)cc1 [Compound 2]	77.4987
O=C(Nc1nc2cnccc2[nH]1)c1ccccc1NS(=O)(=O)c1ccc(Cl)cc1 [Compound 4]	84.584

Same assay, conditions: Vero cells; compound 25 µM

Compound	Cell viability as percentage of cell control (mean absorbance / CELL)
O=C(Nc1nc2cccnc2[nH]1)c1ccccc1NS(=O)(=O)c1ccc(F)cc1 [Compound 2]	53.4692
O=C(Nc1nc2cnccc2[nH]1)c1ccccc1NS(=O)(=O)c1ccc(Cl)cc1 [Compound 4]	66.5687

Same assay, conditions: Vero cells; compound 50 µM

Compound	Cell viability as percentage of cell control (mean absorbance / CELL)
O=C(Nc1nc2cccnc2[nH]1)c1ccccc1NS(=O)(=O)c1ccc(Cl)cc1 [Compound 1]	24.3591
O=C(Nc1nc2cccnc2[nH]1)c1ccccc1NS(=O)(=O)c1ccc(F)cc1 [Compound 2]	30.8677
O=C(Nc1nc2cnccc2[nH]1)c1ccccc1NS(=O)(=O)c1ccc(Cl)cc1 [Compound 4]	49.8167

Same assay, conditions: Vero cells; compound 100 µM

Compound	Cell viability as percentage of cell control (mean absorbance / CELL)
O=C(Nc1nc2cccnc2[nH]1)c1ccccc1NS(=O)(=O)c1ccc(Cl)cc1 [Compound 1]	20.1848
O=C(Nc1nc2cccnc2[nH]1)c1ccccc1NS(=O)(=O)c1ccc(F)cc1 [Compound 2]	25.9519
O=C(Nc1nc2cnccc2[nH]1)c1ccccc1NS(=O)(=O)c1ccc(Cl)cc1 [Compound 4]	25.183

Target: ZIKV NS2B-NS3pro (Zika virus, UniProt A0A024B7W1, C1582S/C1645S/R1467A/R1531G)
Experiment: ZIKV NS2B-NS3pro inhibitory assay with fluorogenic substrate Bz-Nle-Lys-Lys-Arg-AMC
Assay type: biochemical
Conditions: compound 25 µM (close to IC50); CHAPS 1 mM; enzyme 0.2 nM

Compound	% ZIKV NS2B/NS3pro Inhibition [Enzyme] = 0.2 nM [%]
O=C(Nc1nc2cccnc2[nH]1)c1ccccc1NS(=O)(=O)c1ccc(Cl)cc1 [Compound 1]	45 ± 0.1
O=C(Nc1nc2cccnc2[nH]1)c1ccccc1NS(=O)(=O)c1ccc(F)cc1 [Compound 2]	30 ± 0.1
O=C(Nc1nc2cnccc2[nH]1)c1ccccc1NS(=O)(=O)c1ccc(Cl)cc1 [Compound 4]	44 ± 0.2

Same assay, conditions: compound 25 µM (close to IC50); CHAPS 1 mM; enzyme 2 nM

Compound	% ZIKV NS2B/NS3pro Inhibition [Enzyme] = 2 nM [%]
O=C(Nc1nc2cccnc2[nH]1)c1ccccc1NS(=O)(=O)c1ccc(Cl)cc1 [Compound 1]	26 ± 7
O=C(Nc1nc2cccnc2[nH]1)c1ccccc1NS(=O)(=O)c1ccc(F)cc1 [Compound 2]	28 ± 7
O=C(Nc1nc2cnccc2[nH]1)c1ccccc1NS(=O)(=O)c1ccc(Cl)cc1 [Compound 4]	29 ± 8

Same assay, conditions: compound 100 µM; 0.001% Triton X-100, no Tween-20; 10 min preincubation

Compound	% ZIKV NS2B/NS3pro Inhibition (100 µM) 0.001% Triton [%]
O=C(Nc1nc2cccnc2[nH]1)c1ccccc1NS(=O)(=O)c1ccc(Cl)cc1 [Compound 1]	93 ± 8
O=C(Nc1nc2cccnc2[nH]1)c1ccccc1NS(=O)(=O)c1ccc(F)cc1 [Compound 2]	94 ± 7
O=C(Nc1nc2cnccc2[nH]1)c1ccccc1NS(=O)(=O)c1ccc(Cl)cc1 [Compound 4]	93 ± 8

Same assay, conditions: compound 100 µM; 0.01% Triton X-100, no Tween-20; 10 min preincubation

Compound	% ZIKV NS2B/NS3pro Inhibition (100 µM) 0.01% Triton [%]
O=C(Nc1nc2cccnc2[nH]1)c1ccccc1NS(=O)(=O)c1ccc(Cl)cc1 [Compound 1]	47 ± 34
O=C(Nc1nc2cccnc2[nH]1)c1ccccc1NS(=O)(=O)c1ccc(F)cc1 [Compound 2]	30 ± 19
O=C(Nc1nc2cnccc2[nH]1)c1ccccc1NS(=O)(=O)c1ccc(Cl)cc1 [Compound 4]	25 ± 15

Same assay, conditions: compound 100 µM; 10 min pre-incubation with BSA 1 mg/mL before enzyme

Compound	% ZIKV NS2B/NS3pro Inhibition (100 µM) BSA [%]
O=C(Nc1nc2cccnc2[nH]1)c1ccccc1NS(=O)(=O)c1ccc(Cl)cc1 [Compound 1]	69 ± 6
O=C(Nc1nc2cccnc2[nH]1)c1ccccc1NS(=O)(=O)c1ccc(F)cc1 [Compound 2]	32 ± 2
O=C(Nc1nc2cnccc2[nH]1)c1ccccc1NS(=O)(=O)c1ccc(Cl)cc1 [Compound 4]	45 ± 4

Same assay, conditions: compound 100 µM; 10 min preincubation with enzyme; 0.005% Tween-20; enzyme 0.2 nM

Compound	% ZIKV NS2B/NS3pro Inhibition (100 µM) With Preincubation [%]
O=C(Nc1nc2cccnc2[nH]1)c1ccccc1NS(=O)(=O)c1ccc(Cl)cc1 [Compound 1]	100 ± 0
O=C(Nc1nc2cccnc2[nH]1)c1ccccc1NS(=O)(=O)c1ccc(F)cc1 [Compound 2]	100 ± 0
O=C(Nc1nc2cnccc2[nH]1)c1ccccc1NS(=O)(=O)c1ccc(Cl)cc1 [Compound 4]	100 ± 0

Same assay, conditions: compound 100 µM; no preincubation; 0.005% Tween-20

Compound	% ZIKV NS2B/NS3pro Inhibition (100 µM) Without Preincubation [%]
O=C(Nc1nc2cccnc2[nH]1)c1ccccc1NS(=O)(=O)c1ccc(Cl)cc1 [Compound 1]	100 ± 0
O=C(Nc1nc2cccnc2[nH]1)c1ccccc1NS(=O)(=O)c1ccc(F)cc1 [Compound 2]	100 ± 0
O=C(Nc1nc2cnccc2[nH]1)c1ccccc1NS(=O)(=O)c1ccc(Cl)cc1 [Compound 4]	100 ± 0

Same assay, conditions: from dose-response curve, replica 1

Compound	Hill Slope Replica 1
O=C(Nc1nc2cccnc2[nH]1)c1ccccc1NS(=O)(=O)c1ccc(Cl)cc1 [Compound 1]	3.046
O=C(Nc1nc2cccnc2[nH]1)c1ccccc1NS(=O)(=O)c1ccc(F)cc1 [Compound 2]	0.731
O=C(Nc1nc2cnccc2[nH]1)c1ccccc1NS(=O)(=O)c1ccc(Cl)cc1 [Compound 4]	0.8047

Same assay, conditions: from dose-response curve, replica 2

Compound	Hill Slope Replica 2
O=C(Nc1nc2cccnc2[nH]1)c1ccccc1NS(=O)(=O)c1ccc(Cl)cc1 [Compound 1]	1.585
O=C(Nc1nc2cccnc2[nH]1)c1ccccc1NS(=O)(=O)c1ccc(F)cc1 [Compound 2]	4.089
O=C(Nc1nc2cnccc2[nH]1)c1ccccc1NS(=O)(=O)c1ccc(Cl)cc1 [Compound 4]	0.5347
